The values below come from US8916575B2, “Quinazoline derivatives for the treatment of viral infections and further diseases” (Janssen R&D Ireland, priority 2011, dated 2014).

The structures appear in SMILES notation. Bounds are passed on as bounds.

In the experiment the test system is interferon-stimulated responsive elements (ISRE). Kind of experiment: Activation of ISRE promoter elements by conditioned media from PBMC (HEK-ISREluc). It is filed as cell-based, human. Further details: unit not given here. As to conditions: compound applied to PBMCs, supernatant transferred to HEK-ISREluc cells, 24 hours. The protocol: The potential of compounds to induce IFN-I was also evaluated by measuring the activation of interferon-stimulated responsive elements (ISRE) by conditioned media from PBMC. The ISRE element of sequence GAAACTGAAACT is highly responsive to the STAT1-STAT2-IRF9 transcription factor, activated upon binding of IFN-I to their receptor IFNAR (Clontech, PT3372-5W). The plasmid pISRE-Luc from Clontech (ref. 631913) contains 5 copies of this ISRE element, followed by the firefly luciferase ORF. A HEK293 cell line stably transfected with pISRE-Luc (HEK-ISREluc) was established to profile of the conditioned PBMC cell culture media.
Briefly, PBMCs were prepared from buffy coats of at least two donors using a standard Ficoll centrifugation protocol. Isolated PBMCs were resuspended in RPMI medium supplemented with 10% human AB serum and 2×10^5 cells/well were dispensed into 384-well plates containing compounds (70 μL total volume). After overnight incubation, 10 μL of supernatant was transferred to 384-well plates containing 5×10^3 HEK-ISREluc cells/well in 30 μL (plated the day before). Following 24 hours of incubation, activation of the ISRE elements was measured by assaying luciferase activity using 40 μL/well Steady Lite Plus substrate (Perkin Elmer) and measured with ViewLux ultraHTS microplate imager (Perkin Elmer). The stimulating activity of each compound on the HEK-ISREluc cells was reported as LEC value, defined as the compound concentration applied to the PBMCs resulting in a luciferase activity at least two fold above the standard deviation of the assay. The LEC in turn indicates the degree of ISRE activation on transfer of a defined amount of PBMC culture medium. Recombinant interferon α-2a (Roferon-A) was used as a standard control compound.
In the case of `CCCCNc1nc(N)nc2cccc(OC)c12` [Compound 9], the “HEK-ISRE luc (LEC)” value is listed as 0.10. The result for `CCC[C@@H](CO)Nc1nc(N)nc2cccc(-c3ccccc3)c12` [Compound 10] reads 2.14; that for `CCCCNc1nc(N)nc2cccc(OCCOC)c12` [Compound 11], 0.12.

For `CCCCCNc1nc(N)nc2ccc(Br)cc12` [Compound 13], the “HEK-ISRE luc (LEC)” value was 0.57. With `CCCCNc1nc(N)nc2cc(C(=O)OC)ccc12` [Compound 17], the “HEK-ISRE luc (LEC)” value is 0.75. Regarding `CCCCNc1nc(N)nc2cc(CO)ccc12` [Compound 18], the “HEK-ISRE luc (LEC)” value is recorded as 0.05. Regarding `CCCCNc1nc(N)nc2ccc(-n3cnc(C)c3)cc12` [Compound 21], the “HEK-ISRE luc (LEC)” value was determined as 12.06.

For `CCCCNc1nc(N)nc2ccc(CO)cc12` [Compound 24], the “HEK-ISRE luc (LEC)” value stood at 0.14. As for `CCC[C@@H](CCO)Nc1nc(N)nc2ccc(CC)cc12` [Compound 25], the “HEK-ISRE luc (LEC)” value was determined as 0.16. The result for `CCC[C@@H](CCO)Nc1nc(N)nc2ccc(C(C)C)cc12` [Compound 26] reads 3.07; that for `CCC[C@@H](CCO)Nc1nc(N)nc2ccc(Oc3ccc(C(F)(F)F)cc3Cl)cc12` [Compound 27], 14.21; that for `CCCCNc1nc(N)nc2cc(Cl)c3c(c12)OCCO3` [Compound 28], 1.11. The result for `CCC[C@@H](CCO)Nc1nc(N)nc2ccc(Oc3ccc(C(F)(F)F)cc3)cc12` [Compound 29] reads greater than 23.81; that for `C#CCOc1cccc2nc(N)nc(NCCCC)c12` [Compound 30], 0.04; that for `CCCCNc1nc(N)nc2cccc(OC(C)C)c12` [Compound 31], 0.04.

`CCCCNc1nc(N)nc2cccc(CCc3ccccc3)c12` [Compound 32]: the “HEK-ISRE luc (LEC)” value is listed as 0.27.

With `CCC[C@@H](CO)Nc1nc(N)nc2cc(CO)ccc12` [Compound 33], the “HEK-ISRE luc (LEC)” value is 0.14.

For the molecule `CCC[C@@H](CO)Nc1nc(N)nc2ccc(CO)cc12` [Compound 34], the “HEK-ISRE luc (LEC)” value amounted to 0.39. In the case of `CCCCNc1nc(N)nc2ccc(Oc3ccc(C(F)(F)F)cc3Cl)cc12` [Compound 35], the “HEK-ISRE luc (LEC)” value is on record as greater than 23.81. The result for `CCCCNc1nc(N)nc2cccc(C)c12` [Compound 36] reads 0.32.

Take `CCCCNc1nc(N)nc2c(F)cccc12` [Compound 37]: the “HEK-ISRE luc (LEC)” value stood at 0.07. The result for `CCCCNc1nc(N)nc2ccc(F)cc12` [Compound 38] reads 0.11. With `CCCCNc1nc(N)nc2cc(OC)ccc12` [Compound 39] the figure was 0.15; with `CCCCNc1nc(N)nc2ccc(OC)cc12` [Compound 40], 2.44; with `CCCCNc1nc(N)nc2cccc(Cl)c12` [Compound 41], 0.17. With `CCCCNc1nc(N)nc2cc(F)c(F)cc12` [Compound 42] the figure was 0.26; with `CCC[C@@H](CO)Nc1nc(N)nc2c(C)cccc12` [Compound 43], 0.59; with `CCC[C@@H](CO)Nc1nc(N)nc2cc(C)ccc12` [Compound 44], 0.09. Regarding `CCC[C@@H](CO)Nc1nc(N)nc2ccc(C)cc12` [Compound 45], the “HEK-ISRE luc (LEC)” value turned out to be 0.04. With `CCC[C@@H](CO)Nc1nc(N)nc2cccc(C)c12` [Compound 46] the figure was 0.07.

Take `CCC[C@@H](CO)Nc1nc(N)nc2c(F)cccc12` [Compound 47]: the “HEK-ISRE luc (LEC)” value came out at 0.05. With `CCC[C@@H](CO)Nc1nc(N)nc2cc(F)ccc12` [Compound 48] the figure was 0.02; with `CCC[C@@H](CO)Nc1nc(N)nc2ccc(F)cc12` [Compound 49], 0.13; with `CCC[C@@H](CO)Nc1nc(N)nc2cccc(F)c12` [Compound 50], 0.01. Consider `CCCC[C@@H](CO)Nc1nc(N)nc2ccc(C)cc12` [Compound 51], for which the “HEK-ISRE luc (LEC)” value was 0.09. The result for `CCCC[C@@H](CO)Nc1nc(N)nc2cccc(C)c12` [Compound 52] reads 0.03; that for `CCC[C@@H](CCO)Nc1nc(N)nc2cc(C)ccc12` [Compound 53], 0.02.

For `CCC[C@@H](CCO)Nc1nc(N)nc2ccc(C)cc12` [Compound 54], the “HEK-ISRE luc (LEC)” value is given as 0.18. Turning to `CCC[C@@H](CO)Nc1nc(N)nc2cc(OC)ccc12` [Compound 56], the “HEK-ISRE luc (LEC)” value came to 0.09. The result for `CCC[C@@H](CO)Nc1nc(N)nc2ccc(OC)cc12` [Compound 57] reads 2.08. The result for `CCC[C@@H](CO)Nc1nc(N)nc2cccc(OC)c12` [Compound 58] reads 0.04. The result for `CCCC[C@@H](CO)Nc1nc(N)nc2c(F)cccc12` [Compound 59] reads 0.05; that for `CCCC[C@@H](CO)Nc1nc(N)nc2cc(F)ccc12` [Compound 60], 0.02; that for `CCCC[C@@H](CO)Nc1nc(N)nc2ccc(F)cc12` [Compound 61], 0.12.

Take `CCCC[C@@H](CO)Nc1nc(N)nc2cccc(F)c12` [Compound 62]: the “HEK-ISRE luc (LEC)” value came out at 0.03. With `CCC[C@@H](CCO)Nc1nc(N)nc2c(F)cccc12` [Compound 63] the figure was 0.04; with `CCC[C@@H](CCO)Nc1nc(N)nc2cc(F)ccc12` [Compound 64], 0.04.

Turning to `CCC[C@@H](CCO)Nc1nc(N)nc2ccc(F)cc12` [Compound 65], the “HEK-ISRE luc (LEC)” value came out at 0.56.

As for `CCC[C@@H](CCO)Nc1nc(N)nc2cccc(F)c12` [Compound 66], the “HEK-ISRE luc (LEC)” value amounted to 0.06.

With `CC[C@H](C)[C@@H](CO)Nc1nc(N)nc2c(F)cccc12` [Compound 67], the “HEK-ISRE luc (LEC)” value was found to be 0.21. With `CC[C@H](C)[C@@H](CO)Nc1nc(N)nc2ccc(F)cc12` [Compound 68] the figure was 0.64; with `CCC[C@@H](CO)Nc1nc(N)nc2c(Cl)cccc12` [Compound 69], 0.73. The result for `CCC[C@@H](CO)Nc1nc(N)nc2cc(Cl)ccc12` [Compound 70] reads 0.01; that for `CCC[C@@H](CO)Nc1nc(N)nc2cccc(Cl)c12` [Compound 71], 0.03; that for `CCC[C@@H](CO)Nc1nc(N)nc2cc(F)c(F)cc12` [Compound 72], 0.05. With `CCCC[C@@H](CCO)Nc1nc(N)nc2cc(C)ccc12` [Compound 73] the figure was 0.02. `CCCC[C@@H](CCO)Nc1nc(N)nc2ccc(C)cc12` [Compound 74]: the “HEK-ISRE luc (LEC)” value came out at 0.14. For `CCCC[C@@H](CCO)Nc1nc(N)nc2cccc(C)c12` [Compound 75], the “HEK-ISRE luc (LEC)” value worked out at 0.02. As for `CCCC[C@@H](CO)Nc1nc(N)nc2cc(OC)ccc12` [Compound 76], the “HEK-ISRE luc (LEC)” value was 0.09. With `CCCC[C@@H](CO)Nc1nc(N)nc2ccc(OC)cc12` [Compound 77] the figure was 1.93; with `CCC[C@@H](CCO)Nc1nc(N)nc2cc(OC)ccc12` [Compound 78], 0.04; with `CCC[C@@H](CCO)Nc1nc(N)nc2ccc(OC)cc12` [Compound 79], 2.07. The result for `CC[C@H](C)[C@@H](CO)Nc1nc(N)nc2ccc(OC)cc12` [Compound 80] reads greater than 24; that for `CCCC[C@@H](CCO)Nc1nc(N)nc2c(F)cccc12` [Compound 81], 0.05.

In the case of `CCCC[C@@H](CCO)Nc1nc(N)nc2cc(F)ccc12` [Compound 82], the “HEK-ISRE luc (LEC)” value is on record as 0.04. With `CCCC[C@@H](CCO)Nc1nc(N)nc2ccc(F)cc12` [Compound 83] the figure was 0.37. As to `CCCC[C@@H](CCO)Nc1nc(N)nc2cccc(F)c12` [Compound 84], the “HEK-ISRE luc (LEC)” value worked out at 0.09. On to `CCCCNc1nc(N)nc2ccc(Br)cc12` [Compound 85], for which the “HEK-ISRE luc (LEC)” value is 0.21. The result for `CCC[C@@H](CO)Nc1nc(N)nc2cc(C(=O)OC)ccc12` [Compound 86] reads 0.28; that for `CCCC[C@@H](CCO)Nc1nc(N)nc2cc(OC)ccc12` [Compound 87], 0.04. With `CCCC[C@@H](CCO)Nc1nc(N)nc2ccc(OC)cc12` [Compound 88] the figure was 0.88.

`CCCCNc1nc(N)nc2cc(OC)c(OCc3ccccc3)cc12` [Compound 89]: the “HEK-ISRE luc (LEC)” value is recorded as greater than 24.
